From patent US8859573B2, “Pyrimidinone and pyridinone compounds for use in the treatment of diseases or conditions mediated by Lp-PLA2” (Glaxo Group Limited, priority 2010, dated 2014)

How the values were obtained:
[1] = target: T1, Lp-PLA2 from plasma (Homo sapiens, UniProt Q13093); experiment: Lp-PLA2 human plasma assay (Thio-PAF assay); assay type: biochemical; conditions: pooled human plasma; read-out: pIC50 values in the thio-PAF assay (converted)
T1 construct: from tissue; host or cells: pooled human plasma
T1 sequence (Q13093 22-441): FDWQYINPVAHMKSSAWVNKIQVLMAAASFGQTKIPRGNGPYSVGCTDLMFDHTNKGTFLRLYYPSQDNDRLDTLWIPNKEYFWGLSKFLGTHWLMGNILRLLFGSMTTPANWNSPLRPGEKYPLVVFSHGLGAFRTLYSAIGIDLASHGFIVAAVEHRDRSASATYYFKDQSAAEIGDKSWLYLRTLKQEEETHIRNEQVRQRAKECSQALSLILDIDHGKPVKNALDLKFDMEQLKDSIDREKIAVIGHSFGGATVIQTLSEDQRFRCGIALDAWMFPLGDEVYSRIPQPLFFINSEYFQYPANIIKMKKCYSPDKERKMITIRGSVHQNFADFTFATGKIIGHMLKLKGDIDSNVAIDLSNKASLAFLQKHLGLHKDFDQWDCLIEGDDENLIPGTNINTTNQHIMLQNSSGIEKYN
Source text: (3) Lipoprotein-Associated Phospholipase A2 (Lp-PLA2) Human Plasma Assay (Also Referred to as “Thio-PAF Assay”)
The human plasma assay utilizes a thioester analog of PAF (phosphatidylcholine), where hydrolysis yields to the formation of a phospholipid containing a free thiol group. The amount of thiol is quantitated continuously by reacting with CPM (7-diethylamino-3-(4′-maleimidylphenyl)-4-methylcoumarin), a maleimide which increases in fluoresence after Michael addition of thiols. This assay may detect the activity of Lp-PLA2 from plasma, as determined by specific inhibition by Lp-PLA2 inhibitors.
The thio-PAF assay was run as a quenched 15 μL assay. Compounds source plate was prepared by making 1:3 (by volume) serial dilution of the compounds into pure DMSO on 384-well microplate. 0.01 μL of compounds on compound source plate were transferred to 384 well Greiner 784076 (black) low-volume plates by ECHO liquid dispenser. 8 μL pooled human plasma, which was previously aliquoted and frozen, was added. Plates were centrifuged for 10 sec at 500 rpm. After 30 minutes preincubation, 2 μL of substrate (2.5 mM thio-PAF, 3.2 mM NEM (N-ethylmaleimide) [made fresh daily in DMSO], and 32 μM CPM [from a DMSO stock] in assay buffer of 50 mM HEPES, pH7.4, 150 mM NaCl, 1 mM CHAPS was added to 384 well Greiner 784076 (black) low-volume plates by BRAVO liquid handling station. Plates were centrifuged for 10 sec at 500 rpm. Plate was covered to protect from light and incubated for 2 min at room temperature. Reaction was quenched with 5 μL of 5% aqueous trifluoroacetic acid (TFA). Plates were covered to protect from light and incubated for 40 min at room temperature. Plates were read at ex: 380/em: 485 using-Envision microplate reader. PIC50 data, curve and QC analysis was conducted by using XLFit module in Excel.

[2] = target: T2, recombinant human Lp-PLA2 (Homo sapiens, UniProt Q13093); experiment: Recombinant human Lp-PLA2 assay (rhLp-PLA2, PED6 assay); assay type: biochemical; conditions: upper limit for pIC50 in this assay is 9.3
T2 sequence (Q13093 22-441): T1 sequence (Q13093 22-441)
Source text: (1) Recombinant Human Lp-PLA2 Assay (rhLp-PLA2) (Also Referred to as “PED6” Assay)
N-((6-(2,4-dinitrophenyl)amino)-hexanoyl)-2-(4,4-difluoro-5,7-dimethyl-4-bora-3a,4a-diaza-s-indacene-3-pentanoyl)-1-hexadecanoyl-sn-glycero-3-phosphoethanolamine, triethylammonium salt (PED6) is a commercially available fluorescently-labelled phospholipid, which is commercially available from Molecular Probes. There is a quenching para-nitro phenyl (PNP) group in the sn3 position and a Bodipy fluorescein (FL) group in the sn2 position. Upon cleavage with Lp-PLA2, the Bodipy F1 group is liberated and then may result in an increase in fluorescence. Inhibitors of Lp-PLA2 therefore prevent this cleavage and no fluorescent increase is observed.
The PED6 assay was run as an […] 10 μL assay. Compounds source plate was prepared by making 1:3 (by volume) serial dilution of the compounds into pure DMSO on 384-well microplate. Then, 0.01 μL of compounds on compound source plate were transferred into 384 well Greiner 784076 (black) plates by ECHO liquid dispenser. 5 μL of recombinant human Lp-PLA2 enzyme (2 nM rhLp-PLA2 in assay buffer of 50 mM HEPES, pH7.4, 150 mM NaCl, 1 mM CHAPS) was added to each well of the plate with compounds. Plates were centrifuged for 10 sec at 500 rpm. After 30 minutes preincubation, […] substrate (4 μM PED6 [from 5 mM DMSO stock] in assay buffer of 50 mM HEPES, pH7.4, 150 mM NaCl, 1 mM CHAPS) was added to 384 well Greiner 784076 (black) plates. Plates were centrifuged for 10 sec at 500 rpm. Plate was covered to protect from light and incubated for 20 min at room temperature. Plates were read for fluorescence intensity at ex: 480/em: 540 using ViewLux microplate imager. PIC50 data, curve and QC analysis was conducted by using XL fit module in Excel.

[3] = test system: proinflammatory (M1) and anti-inflammatory (M2) markers; experiment: Ex vivo analysis of M1 and M2 markers in macrophages of EAE animals (realtime PCR); set-up: species or system rats; conditions: EAE by MBP immunization, splenic macrophages day 13 and CNS infiltrating macrophages
Experimental: A further study was carried out to study the impact of Lp-PLA2 inhibitors on modulating M1/M2 imbalance. In this study, rats were induced to develop experimental autoimmune encephalomyelitis (EAE) by immunization with myelin basic protein (MBP) antigen and treated with a known Lp-PLA2 inhibitor: 5-((9-Methoxy-4-oxo-6,7-dihydro-4H-pyrimido[6,1-a]isoquinolin-2-yl)oxy)-2-(3-(trifluoromethyl)phenoxy)benzonitrile (See PCT application no. PCT/CN2011/001597) For preventive treatment, compound administration started at day 0 whereas it started at 7 day in therapeutic treatment. Rats were subsequently monitored for symptoms of EAE. Rats were immunized with MBP to develop EAE and symptoms were monitored daily. Plasma Lp-PLA2 activity and LysoPC concentration were determined at different time points through the course of EAE.
Ex vivo analysis of proinflammatory (M1) and anti-inflammatory (M2) markers in control and compound treated EAE […]. Splenic macrophages were harvested at day 13 post MBP-immunization and assayed for expression of a variety of markers by realtime PCR. CNS infiltrating cells were harvested and macrophages were analyzed for expression of M1 and M2 markers by realtime PCR.

| IC50 [1] | IC50 [2] | Structure (SMILES) | M1 markers [3] | M2 markers [3] |
| --- | --- | --- | --- | --- |
| ≤ 100 nM | ≤ 1 nM | Cc1cn(Cc2cnn(C)c2)c(=O)nc1OCc1ccc(Oc2cccc(C(F)(F)F)c2)c(C#N)c1 [Example 69, 5-(((5-methyl-1-((1-methyl-1H-pyrazol-4-yl)methyl)-2-oxo-1,2-dihydropyrimidin-4-yl)oxy)methyl)-2-(3-(trifluoromethyl)phenoxy)benzonitrile] |  |  |
| ≤ 1000 nM | > 10 nM | Cc1cn(Cc2cnn(C)c2)c(=O)nc1OCCc1ccc(Oc2ccc(F)c(F)c2)nc1 [Example 67, 4-(2-(6-(3,4-difluorophenoxy)pyridin-3-yl)ethoxy)-5-methyl-1-((1-methyl-1H-pyrazol-4-yl)methyl)pyrimidin-2(1H)-one] |  |  |
| ≤ 100 nM | ≤ 1 nM | Cn1cc(Cn2ccc(OCc3cnc(Oc4ccc(Cl)c(C(F)(F)F)c4)c(F)c3)nc2=O)cn1 [Example 17, 4-{[(6-{[4-Chloro-3-(trifluoromethyl)phenyl]oxy}-5-fluoro-3-pyridinyl)methyl]oxy}-1-[(1-methyl-1H-pyrazol-4-yl)methyl]-2 (1H)-pyrimidinone] |  |  |
| ≤ 100 nM | ≤ 1 nM | COc1ncc(Cn2cc(Cl)c(OCCc3cnc(Oc4ccc(Cl)c(C(F)(F)F)c4)c(F)c3)nc2=O)cn1 [Example 32, 5-chloro-4-(2-(6-(4-chloro-3-(trifluoromethyl)phenoxy)-5-fluoropyridin-3-yl)ethoxy)-1-((2-methoxypyrimidin-5-yl)methyl)pyrimidin-2(1H)-one] |  |  |
| ≤ 1000 nM | ≤ 1 nM | CCn1ccc(OCc2ccc(Oc3ccc(Cl)c(C(F)(F)F)c3)c(C#N)c2)nc1=O [Example 5, 2-{[4-Chloro-3-(trifluoromethyl)phenyl]oxy}-5-{[(1-ethyl-2-oxo-1,2-dihydro-4-pyrimidinyl)oxy]methyl}benzonitrile] |  |  |
| ≤ 100 nM | ≤ 1 nM | Cc1cn(Cc2cnn(C)c2)c(=O)nc1OCc1ccc(Oc2ccc(F)c(F)c2)c(C#N)c1 [Example 71, 2-(3,4-difluorophenoxy)-5-(((5-methyl-1-((1-methyl-1H-pyrazol-4-yl)methyl)-2-oxo-1,2-dihydropyrimidin-4-yl)oxy)methyl)benzonitrile] |  |  |
| ≤ 100 nM | ≤ 1 nM | Cn1cc(Cn2cc(F)c(OCCc3ccc(Oc4ccc(C(F)(F)F)nc4)c(F)c3)nc2=O)cn1 [Example 41, 5-fluoro-4-(3-fluoro-4-((6-(trifluoromethyl)pyridin-3-yl)oxy)phenethoxy)-1-((1-methyl-1H-pyrazol-4-yl)methyl)pyrimidin-2(1H)-one] |  |  |
| ≤ 100 nM | ≤ 1 nM | Cn1cc(Cn2ccc(OCCc3cnc(Oc4ccc(Cl)c(C(F)(F)F)c4)c(F)c3)nc2=O)cn1 [Example 18, 4-{[2-(6-{[4-Chloro-3-(trifluoromethyl)phenyl]oxy}-5-fluoro-3-pyridinyl)ethyl]oxy}-1-[(1-methyl-1H-pyrazol-4-yl)methyl]-2(1H)-pyrimidinone] |  |  |
| ≤ 100 nM | ≤ 1 nM | N#Cc1cc(COc2ccn(Cc3cccnc3)c(=O)n2)ccc1Oc1ccc(Cl)c(C(F)(F)F)c1 [Example 4, 2-(4-Chloro-3-(trifluoromethyl)phenoxy)-5-(((2-oxo-1-(pyridin-3-ylmethyl)-1,2-dihydropyrimidin-4-yl)oxy)methyl)benzonitrile] |  |  |
| ≤ 100 nM | ≤ 1 nM | O=c1nc(OCCc2ccc(Oc3ccc(Cl)c(C(F)(F)F)c3)cc2)ccn1Cc1cccnc1 [Example 10, 4-{[2-(4-{[4-Chloro-3-(trifluoromethyl)phenyl]oxy}phenyl)ethyl]oxy}-1-(3-pyridinylmethyl)-2(1H)-pyrimidinone] |  |  |
| ≤ 100 nM | ≤ 1 nM | Cn1cc(Cn2ccc(OCCc3ccc(Oc4ccc(Cl)c(C(F)(F)F)c4)cc3)nc2=O)cn1 [Example 12, 4-{[2-(4-{[4-Chloro-3-(trifluoromethyl)phenyl]oxy}phenyl)ethyl]oxy}-1-[(1-methyl-1H-pyrazol-4-yl)methyl]-2(1H)-pyrimidinone] |  |  |
|  |  | COc1ccc2c(c1)CCn1c-2cc(Oc2ccc(Oc3cccc(C(F)(F)F)c3)c(C#N)c2)nc1=O [5-((9-Methoxy-4-oxo-6,7-dihydro-4H-pyrimido[6,1-a]isoquinolin-2-yl)oxy)-2-(3-(trifluoromethyl)phenoxy)benzonitrile] | decrease | increase |
| ≤ 100 nM | ≤ 1 nM | Cn1cc(Cn2cc(Cl)c(OCc3ccc(Oc4ccc(F)c(F)c4)c(F)c3)nc2=O)cn1 [Example 53, 5-chloro-4-((4-(3,4-difluorophenoxy)-3-fluorobenzyl)oxy)-1-((1-methyl-1H-pyrazol-4-yl)methyl)pyrimidin-2 (1H)-one] |  |  |
| ≤ 100 nM | ≤ 1 nM | Cc1cn(Cc2cnn(C)c2)c(=O)nc1OCc1ccc(Oc2ccc(F)c(F)c2)c(F)c1 [Example 72, 4-((4-(3,4-difluorophenoxy)-3-fluorobenzyl)oxy)-5-methyl-1-((1-methyl-1H-pyrazol-4-yl)methyl)pyrimidin-2(1H)-one] |  |  |
